In patent US20250213547A1, “METHODS OF TREATING NEUROLOGICAL DISEASES” (priority 2022, published 2025):
Like-named read-outs stand apart in the source and are kept apart here.

Tests used:
clinical = conditions: human, in vivo, 300 mg
Source text: This study included nine patients in a three-sequence regimen altering fed state and formulation.
Aside from differences in a few selected time points, PK data collection procedures and analyses are similar to example 2.

[1] = Adult DEE patients (Part A/Part B): safety and tolerability; conditions: human, in vivo, 60 days
[2] = both, human, in vivo
Description: The study enrolled 48 subjects in the single rising dose study. Subjects were sorted into six cohorts and randomly assigned to treatment or placebo groups.
A prior study of soticlestat dosing in dogs guided the safety margin of minimal and maximal single dose selection for human subjects. An initial dosage of 10 mg provided a 44-fold safety margin relative to the maximum safe dosage in dogs. […] Each dose trial contained two placebo subjects. Ascending doses were tested in 2 sentinel subjects at a time to determine safety and tolerability before including the full cohort.
The mean values in table 6 with the superscript “a” were derived from n=3 subjects and values with superscript “b” were derived from n=4 subjects.

[3] = for Avg. CFBL 24HC / Max. CFBL 24HC: Table 34, ELEKTRA patients, steady-state; for Avg. Ch. f. BL. 24HC / Max. Red. f. BL. 24HC: Table 34A, ELEKTRA (TAK-935-2002)
Source text: Other inclusion criteria were body weight ≥10 kg, currently taking a fixed dosage of 1 to 4 antiseizure medications, and failure to remain seizure free after trying at least two antiseizure medications. Convulsive seizures include focal to bilateral tonic-clonic with impaired awareness, hemi-clonic, simultaneous bilateral clonic, and generalized tonic-clonic seizures. Drop seizures can involve the entire body, trunk, or head which leads to falling. […] Approximately 126 patients ages ≥2 and ≤17 years were enrolled in the study. The study included two main phases, a 4-6 week screening and baseline period, and a 20-week treatment period. Patients received doses twice a day in a tablet formulation. The starting dose was adjusted according to the patient's body weight (Table 17).
During the first 8 weeks of treatment patient dosing was a titrated for individual optimization. The remaining 12-weeks of treatment consisted of a maintenance phase. The study began with treating patients ≥9 years of age for one month before treating younger patients. Blood was collected for PK analysis on the first dosage day within one hour of the morning dose, and 30 minutes, and 1, 2, 3, and 4 hours post-dose. Subsequent blood sampling took place before the morning dose and 30 minutes post-dose. Blood samples were obtained at scheduled times for determining PK profile and Tmax, which is the time Cmax was reached. A patient's seizure frequency was recorded before and during the trial to calculate percent change from baseline.
The PK model parameters can be used as a tool to estimate PK and drug exposure in an individual or a population (such as with ELEKTRA), as well as to calculate individualized dosing based on covariates. For example, optimal daily dosing can be calculated using the area under the concentration time curve and clearance values (dose=targetAUC24×CL). Blood sampling at steady-state was limited in the ELEKTRA study, thus some of the PK parameters shown in Table 32 for the ELEKTRA population were simulated by interpolation.
The dots represent the simulation and the numbers below the dot represent the simulated covariate value, while the values above the dots show the percent change from the reference level. The vertical line labeled “ref” depicts the reference level. […] The CV % refers to the coefficient of variation assuming a log-normal distribution, derived as […], where σ denotes the standard deviation of the log-transformed values.
The term AUC(0-tau) stands for AUC to the end of the dosing period. The covariate effects were analyzed using exposure parameters AUC, Cmax, and Ctrough.

plasma 24HC [4] = experiment: Healthy Japanese subjects, Part 2: plasma 24HC pharmacodynamics; format: in vivo, human
Description: TAK-935 or placebo was administered to the 9 subjects at the dose of 100 mg BID from Day 1 to Day 7, then 200 mg BID from Day 8 to Day 14, and finally 300 mg BID from Day 15 to Day 21, and safety, PK and PD were investigated. The planned dose levels of TAK-935 to be evaluated are outlined in Table 40a.
Blood samples for PD analysis of plasma 24HC level were collected into blood collection tubes (vacutainer) containing the anticoagulant K2EDTA.
The PD assessments described below were performed at the time points stipulated in the schedule of procedures. The additional PD endpoints included the following PD parameters for plasma 24HC: […]

plasma 24HC [5] = experiment: Adult DEE patients: pharmacodynamics, plasma 24HC; format: in vivo, human; conditions: for mean plasma 24HC decrease from baseline: Part A
Description: Blood sample collection and analyses for measuring 24HC was performed as previously described in example 5.

[6] = Eq. Dose 100 mg (N = 70), Median
[7] = Eq. Dose 100 mg (N = 70), Range
[8] = Eq. Dose 200 mg (N = 68), Median
[9] = Eq. Dose 200 mg (N = 68), Range
[10] = Eq. Dose 300 mg (N = 56), Median
[11] = Eq. Dose 300 mg (N = 56), Range
[12] = Equiv. Dose 100 mg BID, N = 70, Mean
[13] = Equiv. Dose 100 mg BID, N = 70, Median
[14] = Equiv. Dose 100 mg BID, N = 70, Range
[15] = Equiv. Dose 200 mg BID, N = 68, Mean
[16] = Equiv. Dose 200 mg BID, N = 68, Median
[17] = Equiv. Dose 200 mg BID, N = 68, Range
[18] = Equiv. Dose 300 mg BID, N = 56, Mean
[19] = Equiv. Dose 300 mg BID, N = 56, Median
[20] = Equiv. Dose 300 mg BID, N = 56, Range
[21] = Day 21 after 100 mg BID, 200 mg BID, and 300 mg BID, mean
[22] = multiple doses 100 mg BID, 200 mg BID, and 300 mg BID (Day 21), mean

## O=C(c1cccnc1-c1ccncc1)N1CCC(O)(Cc2ccccc2)CC1 [soticlestat]
clinical
  AUC∞ lower, tablet fed than fasting: 10.6%
  Tmax: 31.8 min
  mean Cmax decrease, tablet fed compared to fasted: 59.7%
clinical; po
  AUC∞ lower with tablet compared with oral solution: 15.8%
  Cmax lower with tablet compared with oral solution: 36.9%
  Tmax: 21 min
[1]
  Insomnia, n participants: 3 n
  Lethargy, n participants: 2 n
  Seizure, n participants: 3 n
[2]
  number of TEAEs reported: 29 TEAEs
[3]; Eq. Dose 100 mg (N = 70), Mean
  Avg. CFBL 24HC: −69.4%
  Max. CFBL 24HC: −69.6%
[3]; [6]
  Avg. CFBL 24HC: −70.8%
  Max. CFBL 24HC: −71%
[3]; [7]
  Avg. CFBL 24HC: −86.9-−42.2%
  Max. CFBL 24HC: −87-−42.6%
[3]; Eq. Dose 200 mg (N = 68), Mean
  Avg. CFBL 24HC: −78.6%
  Max. CFBL 24HC: −78.7%
[3]; [8]
  Avg. CFBL 24HC: −80.7%
  Max. CFBL 24HC: −80.8%
[3]; [9]
  Avg. CFBL 24HC: −89.7-−54.7%
  Max. CFBL 24HC: −89.8-−55%
[3]; Eq. Dose 300 mg (N = 56), Mean
  Avg. CFBL 24HC: −82%
  Max. CFBL 24HC: −82.1%
[3]; [10]
  Avg. CFBL 24HC: −84%
  Max. CFBL 24HC: −84.1%
[3]; [11]
  Avg. CFBL 24HC: −90.9-−64.1%
  Max. CFBL 24HC: −90.9-−64.4%
[3]; [12]
  Avg. Ch. f. BL. 24HC: −67.38%
  Max. Red. f. BL. 24HC: −67.65%
[3]; [13]
  Avg. Ch. f. BL. 24HC: −70.08%
  Max. Red. f. BL. 24HC: −70.39%
[3]; [14]
  Avg. Ch. f. BL. 24HC: −86.70-−10.05%
  Max. Red. f. BL. 24HC: −86.77-−10.19%
[3]; [15]
  Avg. Ch. f. BL. 24HC: −76.77%
  Max. Red. f. BL. 24HC: −76.97%
[3]; [16]
  Avg. Ch. f. BL. 24HC: −80.21%
  Max. Red. f. BL. 24HC: −80.37%
[3]; [17]
  Avg. Ch. f. BL. 24HC: −89.03-−18.58%
  Max. Red. f. BL. 24HC: −89.07-−18.80%
[3]; [18]
  Avg. Ch. f. BL. 24HC: −79.95%
  Max. Red. f. BL. 24HC: −80.11%
[3]; [19]
  Avg. Ch. f. BL. 24HC: −82.50%
  Max. Red. f. BL. 24HC: −82.65%
[3]; [20]
  Avg. Ch. f. BL. 24HC: −89.98-−23.43%
  Max. Red. f. BL. 24HC: −90.00-−23.69%
Plasma 24HC [4]; Day 21, up-titration to 300 mg BID
  maximum mean decrease of trough plasma 24HC from time-matched baseline: about 88%
Plasma 24HC [4]; [21]
  AUEC24 of plasma 24HC: 124.2 ng·h/mL
  AVECτ of plasma 24HC (AUEC during a dosing interval): 61.28 ng·h/mL
  E12 of plasma 24HC (observed effect at 12 hours): 5.443 ng/mL
  E24 of plasma 24HC (observed effect at 24 hours): 5.013 ng/mL
  Emax of plasma 24HC: 4.640 ng/mL
Plasma 24HC [4]; Day 21 after 100 mg BID, 200 mg BID, and 300 mg BID, median
  Time to Emax of plasma 24HC: 6.000 h
Plasma 24HC [4]; Homo sapiens, 504 h, multiple doses 100 mg BID, 200 mg BID, and 300 mg BID (Day 21), mean, read-out: % change from Baseline in Emax of plasma 24HC
  Emax: -86.7%
Plasma 24HC [4]; [22]
  % change from Baseline in AUEC24 of plasma 24HC: −86.75%
  % change from Baseline in AUECτ of plasma 24HC: −86.62%
  % change from Baseline in E12 of plasma 24HC: −85.83%
  % change from Baseline in E24 of plasma 24HC: −87.67%
Plasma 24HC [5]; day 11
  mean plasma 24HC decrease from baseline: 69.76%
  plasma 24HC mean percent change from baseline: −69.76%
Plasma 24HC [5]; day 21
  mean plasma 24HC decrease from baseline: 76.88%
  plasma 24HC mean percent change from baseline: −76.88%
Plasma 24HC [5]; day 85
  plasma 24HC mean percent change from baseline: −80.97%
Plasma 24HC [5]; end of Part B (day 85)
  mean percent decrease of plasma 24HC: 80.97%
